Several values for one entry are separate records, joined by “and”; a condition that tells them apart may be missing. Equal entries are not always repeated. Numbered stars: 1 amine (or outer) side, 2 acyl side, 3 side chain; on linkers, the order of the positions; unused ones are H or OH. Bridge positions count the residues as written; N and C are the ends. Square brackets hold non-standard residues; d marks the D form. Peptide text beside a SMILES is read from it. I, II: the chains in the order shown. Actinocin(9to1) = Cc1c2oc3c(C)ccc(C(=O)[*:1])c3nc-2c(C(=O)[*:2])c(N)c1=O; NMeV = CN[C@H](C(=O)O)C(C)C; Sar = CNCC(=O)O
Legend:
TRRE = experiment: Effect of protease inhibitors and divalent metal ions on partially-purified TRRE activity; type: biochemical, human; settings: for effect on TRRE activity: partially-purified TRRE
Description: C75R cells and COS-1 cells were seeded into 24-well culture plates at a density of 2.5×10^5 cells/ml/well and incubated overnight (for 12 to 16 hours) in 5% CO2 at 37° C. […] (corresponding to A and C mentioned below, respectively). Simultaneously, C75R cells in 24-well plates were also incubated with 300 μl of fresh medium or buffer (corresponding to B mentioned below).
The precipitate was pelleted by centrifugation at 10,000×g for 30 min and resuspended in PBS in approximately twice the volume of the pellet. This solution was then dialyzed at 4° C. against 10 mM Tris-HCl, 60 mM NaCl, pH 7.0. This sample was loaded on an anion-exchange chromatography, Diethylaminoethyl (DEAE)-Sephadex A-25 column (Pharmacia Biotech) (2.5×10 cm) previously equilibrated with 50 mM Tris-HCl, 60 mM NaCl, pH 8.0.
Protease inhibitors were purchased from Sigma Chemical (St. Louis, Mo.), including phenylmethylsulfonyl fluoride (PMSF), 4-(2-aminoethyl)-benzenesulfonyl fluoride (AEBSF), 3,4-dichloroisocoumarin (3,4-DCI), N-α-tosyl-L-lysine chloromethyl ketone (TLCK), N-tosyl-L-phenylalanine chloromethyl ketone (TPCK), ethylenediaminetetraacetic acid (EDTA), ethyleneglycol bis (2-aminoethyl ether) tetraacetic acid (EGTA), 1,10-phenanthroline, and phosphoramidon. These inhibitors can be divided into the following classes: (i) serine protease inhibitors (4 mM PMSF, 0.5 mM AEBSF, and 0.1 mM 3,4-DCI); (ii) serine and cysteine protease inhibitors (0.1 mM TLCK and TPCK); (iii) chelating agents (2 mM EDTA, EGTA, and 1,10-phenanthroline); (iv) a metallo-endoprotease inhibitor (0.5 mM phosphoramidon); and (v) divalent heavy metal ions (2 mM CaCl2, MgCl2, MnCl2, ZnCl2, CoCl2, CuCl2, and FeCl2). […] The percent activity remaining (% control) was expressed relative to the control.
The percent activity remaining (% control) was calculated as above.

THP-1 cells [1] = experiment: Effect of inhibitors co-incubated with PMA on TRRE production; type: cell-based, human
Description: Several inhibitors including cycloheximide (Chx) (an inhibitor of protein synthesis), actinomycin D (ActD) (an inhibitor of RNA synthesis), N-ethylmaleimide (NEM) (an inhibitor of membrane internalization and movement), cytochalasin B (CytB) (an inhibitor of microfilament formation), and colchicine (Col) (an inhibitor of microtubule formation) were purchased from Sigma Chemical (St. Louis, Mo.). THP-1 cells at a density of 1×10^6 cells/ml in RPMI-1640/1% FCS with 10^−6 M PMA was co-stimulated along with 10 μg/ml Chx, 1 μg/ml ActD, 1 mM NEM, 0.1 mM CytB, or 0.1 mM Col for 30 min at 37° C. in 5% CO2. Following centrifugation at 400×g for 5 min, the supernatant was discarded and the cells were washed once with serum-free medium. The cells were incubated for an additional 2 hours at the same density (1×10^6 cells/ml) in PMA-free RPMI-1640 with corresponding inhibitors.

THP-1 cells [2] = experiment: as above; type: cell-based, human; settings: inhibitor 0.01 mM with 10^−6 M PMA
[3] = system: Lipopolysaccharide-induced shock; settings: Yamamoto et al. (1997); cited from earlier work
THP-1 cells [4] = experiment: Induction of TRRE by cytokines and hormones; type: cell-based, human; settings: 2 hours stimulation, insulin 10^−7 M, IL-1β 10 ng/ml, IL-6 100 ng/ml; for induction of TRRE activity: IL-10 100 ng/ml, epinephrine 10^−6 M
sTNF-R = settings: Seitz et al. (1997); cited from earlier work
[5] = target: TNF-R on L929 cells (murine); experiment: cell-based or functional assay
[6] = target: human p55 TNF-R (on THP-1 cells) (human) (UniProt P19438); experiment: cell-based or functional assay
Sequence of human p55 TNF-R (on THP-1 cells) (human) (P19438 30-455): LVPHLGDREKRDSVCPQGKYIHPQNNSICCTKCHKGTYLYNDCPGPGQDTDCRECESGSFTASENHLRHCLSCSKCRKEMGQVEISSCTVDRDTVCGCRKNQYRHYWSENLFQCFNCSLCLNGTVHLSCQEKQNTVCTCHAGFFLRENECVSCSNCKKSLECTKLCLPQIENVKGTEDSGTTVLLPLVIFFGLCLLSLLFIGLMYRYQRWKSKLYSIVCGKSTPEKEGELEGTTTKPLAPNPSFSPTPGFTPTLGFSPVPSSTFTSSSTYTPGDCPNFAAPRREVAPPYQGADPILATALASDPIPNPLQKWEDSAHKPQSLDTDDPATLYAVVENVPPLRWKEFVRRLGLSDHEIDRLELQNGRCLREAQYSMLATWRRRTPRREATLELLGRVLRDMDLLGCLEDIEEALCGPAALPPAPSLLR

[7] = target: human p75 TNF-R (membrane-bound, on C75R transfected COS-1 cells or on THP-1 cells) (human) (UniProt P20333); experiment: cell-based or functional assay
Sequence of human p75 TNF-R (membrane-bound, on C75R transfected COS-1 cells or on THP-1 cells) (human) (P20333 23-461 C75R limits assumed): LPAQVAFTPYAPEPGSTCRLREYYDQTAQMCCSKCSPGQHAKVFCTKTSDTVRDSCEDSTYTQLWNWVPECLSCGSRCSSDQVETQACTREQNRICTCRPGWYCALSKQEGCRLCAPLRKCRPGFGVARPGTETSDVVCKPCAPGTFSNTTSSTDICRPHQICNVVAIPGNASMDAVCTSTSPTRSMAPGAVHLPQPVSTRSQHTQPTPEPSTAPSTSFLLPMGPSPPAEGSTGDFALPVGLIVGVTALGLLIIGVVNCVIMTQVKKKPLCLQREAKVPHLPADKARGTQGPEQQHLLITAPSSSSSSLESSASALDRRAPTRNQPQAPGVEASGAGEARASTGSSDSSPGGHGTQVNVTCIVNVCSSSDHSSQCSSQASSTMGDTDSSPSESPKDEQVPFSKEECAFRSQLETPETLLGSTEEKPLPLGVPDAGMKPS

[8] = target: human soluble p75 TNF-R (human) (UniProt P20333); experiment: soluble p75 TNF-R-Affigel 10 affinity chromatography of TRRE after reaction with C75R cells; TRRE activity assay of fractions
Sequence of human soluble p75 TNF-R (human) (P20333 23-257): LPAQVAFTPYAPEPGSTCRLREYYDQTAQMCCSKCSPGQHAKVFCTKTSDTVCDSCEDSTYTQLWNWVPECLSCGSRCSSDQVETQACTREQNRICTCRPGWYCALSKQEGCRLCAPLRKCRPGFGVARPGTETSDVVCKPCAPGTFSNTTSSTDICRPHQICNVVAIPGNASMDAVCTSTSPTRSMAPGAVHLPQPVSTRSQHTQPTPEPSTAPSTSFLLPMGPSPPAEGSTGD

[9] = 2 mM, preincubated 37° C. 30 min (Table 5)
[10] = 0.1 mM, preincubated 37° C. 30 min (Table 5)
[11] = 0.5 mM, preincubated 37° C. 30 min (Table 5)
[12] = inhibitor 0.1 mM with 10^−6 M PMA
[13] = inhibitor 1 mM with 10^−6 M PMA

Molecule: c1cnc2c(c1)ccc1cccnc12 [1,10-Phenanthroline, 1,10-phenanthroline]
- % Control of TRRE activity (TRRE; 2 mM (Table 6)): 47 ± 9%
- % Control of TRRE activity (TRRE; [9]): 41 ± 6%
- % Control of TRRE activity (TRRE; 2 mM, preincubated 37° C. 30 min (Table 5), listed as 1,10-phenanthroline): 41%

Molecule: O=c1oc(Cl)c(Cl)c2ccccc12 [3,4-DCI, 3,4-dichloroisocoumarin]
- % Control of TRRE activity (TRRE; [10]): 108 ± 4%
- effect on TRRE activity (TRRE): no effect

Molecule: NCCc1ccc(S(=O)(=O)F)cc1 [AEBSF, 4-(2-aminoethyl)-benzenesulfonyl fluoride]
- % Control of TRRE activity (TRRE; [11]): 92 ± 8%
- effect on TRRE activity (TRRE): no effect

Molecule: Cc1c2oc3c(C)ccc(C(=O)N[C@@H]4C(=O)N[C@H](C(C)C)C(=O)N5CCC[C@H]5C(=O)N(C)CC(=O)N(C)[C@@H](C(C)C)C(=O)O[C@@H]4C)c3nc-2c(C(=O)N[C@@H]2C(=O)N[C@H](C(C)C)C(=O)N3CCC[C@H]3C(=O)N(C)CC(=O)N(C)[C@@H](C(C)C)C(=O)O[C@@H]2C)c(N)c1=O [Actinomycin D, actinomycin D] (I: T[dV]P[Sar][NMeV] / II: T[dV]P[Sar][NMeV]; ester I:1-I:C, II:1-II:C; linker I:N-II:N via Actinocin(9to1))
- % of TRRE production (THP-1 cells [1]; inhibitor 1 μg/ml with 10^−6 M PMA): 104%
- % of TRRE production (THP-1 cells [1]; inhibitor 1 μg/ml with 10^−6 M PMA, listed as ActD): 97%

Molecule: [Ca+2].[Cl-].[Cl-] [Ca^2+, CaCl2]
- % Control of TRRE activity (TRRE; [9]): 151% and 151 ± 23%
- % Control of TRRE activity (TRRE; 4 mM (Table 6)): 189±4%

Molecule: [Cl-].[Cl-].[Co+2] [Co^2+, CoCl2]
- % Control of TRRE activity (TRRE; [9]): 123% and 123 ± 15%

Molecule: COc1cc2c(c(OC)c1OC)-c1ccc(OC)c(=O)cc1[C@@H](NC(C)=O)CC2 [Colchicine, colchicine]
- % of TRRE production (THP-1 cells [1]; [12]): 111%
- % of TRRE production (THP-1 cells [1]; [13]): 125%
- % of TRRE production (THP-1 cells [2]): 95%

Molecule: [Cl][Cu][Cl] [Cu^2+, CuCl2]
- % Control of TRRE activity (TRRE; [9]): 47% and 47 ± 21%

Molecule: C[C@@H]1C[C@@H]([C@H](O)CC2CC(=O)NC(=O)C2)C(=O)[C@@H](C)C1 [Cycloheximide, cycloheximide]
- % of TRRE production (THP-1 cells [1]; inhibitor 10 μg/ml with 10^−6 M PMA): 97%
- % of TRRE production (THP-1 cells [1]; inhibitor 10 μg/ml with 10^−6 M PMA, listed as Chx): 104%

Molecule: C=C1[C@@H](C)[C@H]2[C@H](Cc3ccccc3)NC(=O)[C@]23OC(=O)/C=C/[C@H](O)CCC[C@@H](C)C/C=C/[C@H]3[C@@H]1O [Cytochalasin B, cytochalasin B]
- % of TRRE production (THP-1 cells [1]; [12]): 91%
- % of TRRE production (THP-1 cells [2]): 103%

Molecule: O=C(O)CN(CCN(CC(=O)O)CC(=O)O)CC(=O)O [EDTA, ethylenediaminetetraacetic acid]
- % Control of TRRE activity (TRRE; [9]): 67% and 67 ± 7%

Molecule: O=C(O)CN(CCOCCOCCN(CC(=O)O)CC(=O)O)CC(=O)O [EGTA, ethyleneglycol bis (2-aminoethyl ether) tetraacetic acid]
- % Control of TRRE activity (TRRE; [9]): 73% and 73 ± 4%

Molecule: O=C(C(=O)N1CCn2nc(-c3ccc(F)cc3)c(-c3ccncc3)c2N1)c1ccccc1.O=S(=O)(O)O [FR167653]
- Lipopolysaccharide-induced shock [3]: ameliorated

Molecule: [Cl][Fe][Cl] [Fe^2+, FeCl2]
- % Control of TRRE activity (TRRE; [9]): 98 ± 8%

Molecule: [Cl-].[Cl-].[Mg+2] [Mg^2+, MgCl2]
- % Control of TRRE activity (TRRE; [9]): 127% and 127 ± 9%

Molecule: [Cl][Mn][Cl] [Mn^2+, MnCl2]
- % Control of TRRE activity (TRRE; [9]): 157% and 157 ± 33%

Molecule: CCN1C(=O)C=CC1=O [N-ethyl-maleimide, N-ethylmaleimide]
- % of TRRE production (THP-1 cells [1]; [13]): 17%

Molecule: O=S(=O)(F)Cc1ccccc1 [PMSF, phenylmethylsulfonyl fluoride]
- % Control of TRRE activity (TRRE; 4 mM, preincubated 37° C. 30 min (Table 5)): 116 ± 4%
- effect on TRRE activity (TRRE): no effect

Molecule: CC(C)C[C@H](NP(=O)(O)O[C@@H]1O[C@@H](C)[C@H](O)[C@@H](O)[C@H]1O)C(=O)N[C@@H](Cc1c[nH]c2ccccc12)C(=O)O [Phosphoramidon, phosphoramidon]
- % Control of TRRE activity (TRRE; [11]): 84 ± 13%

Molecule: Cc1ccc(S(=O)(=O)N[C@@H](CCCCN)C(=O)CCl)cc1 [TLCK, N-α-tosyl-L-lysine chloromethyl ketone]
- % Control of TRRE activity (TRRE; [10]): 108 ± 5%
- effect on TRRE activity (TRRE): no effect

Molecule: [Cl-].[Cl-].[Zn+2] [Zn^2+, ZnCl2]
- % Control of TRRE activity (TRRE; 0.1 mM (Table 6)): 122±6%
- % Control of TRRE activity (TRRE; [9]): 23% and 23 ± 15%

Molecule: CNC[C@H](O)c1ccc(O)c(O)c1 [epinephrine]
- induction of TRRE activity (THP-1 cells [4]): induced TRRE activity

Molecule: CCCCC[C@H](O)/C=C/[C@H]1[C@H](O)CC(=O)[C@@H]1C/C=C\CCCC(=O)O [prostaglandin E2]
- sTNF-R shedding (sTNF-R): not affected

Molecule: IL-1β: cytokine
- induction of TRRE activity (THP-1 cells [4]): no apparent TRRE activity
- induction of sTNF-R (THP-1 cells [4]): induced sTNF-R

Molecule: IL-6: cytokine
- induction of TRRE activity (THP-1 cells [4]): no apparent TRRE activity
- induction of sTNF-R (THP-1 cells [4]): induced sTNF-R

Molecule: N-tosyl-L-phenylalanine chloromethyl ketone [TPCK]
- % Control of TRRE activity (TRRE; [10]): 107 ± 7%
- effect on TRRE activity (TRRE): no effect

Molecule: TNF receptor releasing enzyme (TRRE), from PMA-stimulated THP-1 cells
- ratio of surviving L929 cells with 4 ng/ml TNF to cells without TNF, pretreated with 100 U/ml TRRE (control without TRRE: 24%) [5]: 30%
- ratio of surviving L929 cells with 4 ng/ml TNF to cells without TNF, pretreated with 500 U/ml TRRE (control without TRRE: 24%) [5]: 38%
- ratio of surviving L929 cells with 4 ng/ml TNF to cells without TNF, pretreated with 2,500 U/ml TRRE (control without TRRE: 24%) [5]: 74%
- cell surface expression on THP-1 cells after 5,000 U/ml TRRE (flow cytometry, percent control of MFI) [6]: 8 % control
- soluble p55 TNF-R released from THP-1 cells (ELISA) after 1,000 U/ml TRRE for 30 min [6]: 2380 pg/mL
- cell surface expression on THP-1 cells after 5,000 U/ml TRRE (flow cytometry, percent control of MFI) [7]: 49 % control
- soluble p75 TNF-R released from THP-1 cells (ELISA) after 1,000 U/ml TRRE for 30 min [7]: 1660 pg/mL
- percent of recovered TRRE activity in the elution of the soluble p75 TNF-R affinity column [8]: 25%
- percent of recovered TRRE activity in the flow through of the soluble p75 TNF-R affinity column (not retained) [8]: 53%
- percent of recovered TRRE activity in the wash of the soluble p75 TNF-R affinity column (not retained) [8]: 22%

Molecule: gold sodium thiomalate
- sTNF-R shedding (sTNF-R): not affected

Molecule: insulin: hormone
- induction of TRRE activity (THP-1 cells [4]): no apparent TRRE activity
- induction of sTNF-R (THP-1 cells [4]): induced sTNF-R

B1: IL-10: cytokine (protein, UniProt P22301 19-178, looked up)
Interleukin-10: SPGQGTQSENSCTHFPGNLPNMLRDLRDAFSRVKTFFQMKDQLDNLLLKESLLEDFKGYLGCQALSEMIQFYLEEVMPQAENQDPDIKAHVNSLGENLKTLRLRLRRCHRFLPCENKSKAVEQVKNAFNKLQEKGIYKAMSEFDIFINYIEAYMTMKIRN
- induction of TRRE activity (THP-1 cells [4]): induced TRRE activity

Reference: patent publication US6858402B2 (The Regents of the University of California, priority 1996, dated 2005)
